Source: patent US7153958B2, “Farnesyl transferase inhibiting benzoheterocyclic derivatives” (Janssen Pharmaceutica N.V., priority 2000, dated 2006)

Structure (SMILES) | melting point [°C]
CN1C(=O)CSC(c2cccc(Cl)c2)c2cc(C(O)(c3ccc(Cl)cc3)c3cncn3C)ccc21 (stereo not drawn) | 186
Cn1cncc1C(O)(c1ccc(Cl)cc1)c1ccc2c(c1)C(c1cccc(Cl)c1)OCC(=S)N2 (stereo not drawn) [Example B7, 5-(3-chlorophenyl)-7-[(4-chlorophenyl)hydroxy(1-methyl-1H-imidazol-5-yl)methyl]-1,5-dihydro-4,1-benzoxazepine-2(3H)-thione] | > 300
CN1C(=O)COC(c2cccc(Cl)c2)c2cc(C(O)(c3ccc(Cl)cc3)c3cncn3C)ccc21 (stereo not drawn) [Example B3, 5-(3-chlorophenyl)-7-[(4-chlorophenyl)hydroxy(1-methyl-1H-imidazol-5-yl)methyl]-1,5-dihydro-1-methyl-4,1-benzoxazepin-2(3H)-one] | 160
Cn1cncc1C(O)(c1ccc(Cl)cc1)c1ccc2c(c1)C(c1cccc(Cl)c1)=NCC(=O)N2 (stereo not drawn) | 200
Cn1cncc1C(O)(c1ccc(Cl)cc1)c1ccc2c(c1)C(c1cccc(Cl)c1)SCC(=O)N2CC1CC1 (stereo not drawn) | 245
Cn1cncc1C(O)(c1ccc(Cl)cc1)c1ccc2c(c1)C(c1cccc(Cl)c1)SCC(=O)N2 (stereo not drawn) | 210
CN1C(=O)CSC(c2cccc(Cl)c2)c2cc(C(N)(c3ccc(Cl)cc3)c3cncn3C)ccc21 (stereo not drawn) | 218
Cn1cncc1C(O)(c1ccc(Cl)cc1)c1ccc2c(c1)C(c1cccc(Cl)c1)OCC(=O)N2 (stereo not drawn) [Example B1, 5-(3-chlorophenyl)-7-[(4-chlorophenyl)hydroxy(1-methyl-1H-imidazol-5-yl)methyl]-1,5-dihydro-4,1-benzoxazepin-2(3H)-one] | 260
Cn1cncc1C(O)(c1ccc(Cl)cc1)c1ccc2c(c1)C(c1cccc(Cl)c1)=NCc1nnnn1-2 (stereo not drawn) | 240
O=C1CN=C(c2ccccc2)c2cc(C(c3ccc(Cl)cc3)n3ccnc3)ccc2N1 (racemic) | 144
Cn1cncc1C(c1ccc(Cl)cc1)c1ccc2c(c1)C(c1cccc(Cl)c1)SCc1nnnn1-2 (stereo not drawn) | 162
CN1C(=O)CN=C(c2cccc(Cl)c2)c2cc(C(O)(c3ccc(Cl)cc3)c3cncn3C)ccc21 (stereo not drawn) | 226
Cn1cncc1C(N)(c1ccc(Cl)cc1)c1ccc2c(c1)C(c1cccc(Cl)c1)=NCc1nnnn1-2 (stereo not drawn) | 218
CN1C(=O)CN=C(c2cccc(Cl)c2)c2cc(C(N)(c3ccc(Cl)cc3)c3cncn3C)ccc21 (stereo not drawn) | 213
Cn1cncc1C(c1ccc(Cl)cc1)c1ccc2c(c1)C(c1cccc(Cl)c1)SCC(=O)N2 (stereo not drawn) | 187
Cn1cncc1C(O)(c1ccc(Cl)cc1)c1ccc2c(c1)C(c1cccc(Cl)c1)SCc1nnnn1-2 (stereo not drawn) | 217
CN1C(=O)CNC(c2cccc(Cl)c2)c2cc(C(O)(c3ccc(Cl)cc3)c3cncn3C)ccc21 (stereo not drawn) [Example B5, 5-(3-chlorophenyl)-7-[(4-chlorophenyl)hydroxy(1-methyl-1H-imidazol-5-yl)methyl]-1,3,4,5-tetrahydro-1-methyl-2H-1,4-benzodiazepin-2-one] | 208
Cn1cncc1C(c1ccc(Cl)cc1)c1ccc2c(c1)C(c1cccc(Cl)c1)SCCC(=O)N2 (stereo not drawn) | 199
